In patent US20240156971A1, “METHODS AND SORTILIN BINDING CONJUGATE COMPOUNDS FOR TARGETING CANCER STEM CELLS” (TRANSFERT PLUS, SOCIÉTÉ EN COMMANDITE, priority 2021, published 2024):
Square brackets hold non-standard residues; d marks the D form. Ends that are not written are not given here. Alexa Fluor 488 = Alexa Fluor 488 C5-maleimide dye; Nle = CCCC[C@H](N)C(=O)O

How the values were obtained:
hBCSCs = test: Internalization of TH19P01-Alexa Fluor 488 by hBCSCs (flow cytometry); format: cell-based, human; settings: 200 nM, 2 hours, vs vehicle-treated cells
Method: Assessment of Intracellular Fluorescence with TH19P01-Alexa Fluor™ 488. hBCSC were grown in 12-well plates in complete media for 24 hours. […] In another experiment, siScrambled- or siSORT1-transfected cells were washed with HBSS and incubated in HBSS in the presence or absence of 200 nM Alexa Fluor™ 488-labeled TH19P01. For both types of experiments, after 2 hours of incubation at 37° C., cells were washed with HBSS, trypsinized, washed again and fluorescence assessed in the FL1 channel using a C6 Accuri™ flow cytometer (BD Biosciences, San Jose, CA).

Sortilin = target: T1, Sortilin (Homo sapiens, UniProt Q99523); test: Uptake of TH19P01-Alexa Fluor 488 by hBCSCs in the presence of competing Sortilin ligands; format: cell-based; settings: 200 nM fluorescent peptide, 2 h, 10 μM neurotensin, 50 μM TH19P01 or 1 nM progranulin
T1 construct: host or cells: human triple-negative breast cancer stem cells (hBCSCs)
T1 sequence (Q99523 78-831): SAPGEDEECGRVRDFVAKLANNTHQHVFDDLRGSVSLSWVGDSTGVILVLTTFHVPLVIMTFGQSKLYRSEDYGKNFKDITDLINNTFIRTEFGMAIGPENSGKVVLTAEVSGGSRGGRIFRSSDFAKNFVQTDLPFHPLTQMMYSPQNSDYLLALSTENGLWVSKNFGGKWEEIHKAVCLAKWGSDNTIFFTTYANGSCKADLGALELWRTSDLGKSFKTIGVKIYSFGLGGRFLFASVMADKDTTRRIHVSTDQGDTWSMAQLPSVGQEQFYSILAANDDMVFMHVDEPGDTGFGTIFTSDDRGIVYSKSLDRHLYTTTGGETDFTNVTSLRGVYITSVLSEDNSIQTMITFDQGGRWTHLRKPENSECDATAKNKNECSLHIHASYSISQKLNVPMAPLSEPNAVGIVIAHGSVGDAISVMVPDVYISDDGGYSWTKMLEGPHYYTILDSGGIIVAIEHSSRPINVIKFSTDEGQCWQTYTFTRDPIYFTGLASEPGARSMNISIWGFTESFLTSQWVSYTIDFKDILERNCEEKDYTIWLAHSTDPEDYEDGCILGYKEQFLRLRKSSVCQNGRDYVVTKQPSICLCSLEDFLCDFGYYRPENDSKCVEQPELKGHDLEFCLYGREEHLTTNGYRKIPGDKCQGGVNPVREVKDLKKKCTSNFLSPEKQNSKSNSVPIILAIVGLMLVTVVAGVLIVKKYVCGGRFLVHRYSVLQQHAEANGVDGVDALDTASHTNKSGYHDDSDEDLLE

ovarian hOCSC xenografts = test: hOCSC xenografts treated with single agents or combined with carboplatin; format: in vivo, mice; settings: docetaxel 10 mg/kg; TH1902 23 mg/kg; paclitaxel 10 mg/kg; carboplatin 40 mg/kg; day 18
Method: Mice bearing ovarian hOCSC xenografts were treated with vehicle, docetaxel, paclitaxel, TH1902 or carboplatin, and other groups of mice were administered carboplatin in combination with either docetaxel, paclitaxel or TH1902. To minimize the risk of side effects resulting from combining treatments, the dosages used for each drug were reduced to the following: docetaxel 10 mg/kg; TH1902 23 mg/kg (equivalent to the docetaxel dosage); paclitaxel 10 mg/kg; carboplatin 40 mg/kg (unchanged).

Row | Compound | decrease of intracellular fluorescence (internalization of TH19P01-Alexa Fluor 488) by competing agent (Sortilin) | inhibition of tumor growth, single agent (ovarian hOCSC xenografts) | other results
1 | TH19P01-Alexa Fluor™ 488 (GVRAKAGVRN[Nle]FKSESYC(Alexa Fluor 488)) | – | – | fluorescent signal in cells versus background fluorescence (hBCSCs): an order of magnitude greater than the background fluorescence
2 | GVRAKAGVRN(Nle)FKSESY (GVRAKAGVRN[Nle]FKSESY) [TH19P01] | decrease significantly (p<0.01) by about half | – | –
3 | CC(=O)O[C@H]1C(=O)[C@@]2(C)[C@H]([C@H](OC(=O)c3ccccc3)[C@]3(O)C[C@H](OC(=O)[C@H](O)[C@@H](NC(=O)c4ccccc4)c4ccccc4)C(C)=C1C3(C)C)[C@]1(OC(C)=O)CO[C@@H]1C[C@@H]2O [Paclitaxel, paclitaxel] | – | practically equivalent to that seen with docetaxel | –
4 | N.N.O=C([O-])C1(C(=O)[O-])CCC1.[Pt+2] [carboplatin] | – | practically equivalent to that seen with docetaxel | –
5 | progranulin [reference compound] | decrease significantly (p<0.01) by about half | – | –
